Here are results for 5 compounds from ChEMBL document CHEMBL1131924, “Synthesis and biological evaluation of 1alpha,24-dihydroxy-25-nitrovitamin D3” (1999).

Assay [1] deals with T1, Vitamin D3 receptor (Gallus gallus) (UniProt O42392).
T1 sequence (whole entry): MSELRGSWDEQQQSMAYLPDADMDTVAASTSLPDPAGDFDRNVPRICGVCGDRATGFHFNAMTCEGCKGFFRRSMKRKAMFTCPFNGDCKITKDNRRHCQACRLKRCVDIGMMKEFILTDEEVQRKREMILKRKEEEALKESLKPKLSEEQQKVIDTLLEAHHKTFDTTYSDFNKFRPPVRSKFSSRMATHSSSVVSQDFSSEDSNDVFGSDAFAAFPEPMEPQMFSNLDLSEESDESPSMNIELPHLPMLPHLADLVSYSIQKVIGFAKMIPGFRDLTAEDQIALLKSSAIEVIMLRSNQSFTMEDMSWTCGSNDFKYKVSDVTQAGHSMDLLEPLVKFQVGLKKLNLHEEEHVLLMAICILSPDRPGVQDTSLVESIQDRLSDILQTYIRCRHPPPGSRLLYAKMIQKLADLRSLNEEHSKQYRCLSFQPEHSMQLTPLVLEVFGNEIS
Description: Relative binding affinity for chick intestinal Vitamin D3 receptor (VDR).

The test system of another assay is HL-60. Description: Cell differentiation activity towards HL-60 cells assessed in terms of 4-nitro-blue tetrazolium (NBT) reactivity. Type of assay: functional, Homo sapiens.

With `C=C1/C(=C\C=C2/CCC[C@]3(C)[C@@H]([C@H](C)CCCC(C)(C)O)CC[C@@H]23)C[C@@H](O)C[C@@H]1O` [CALCITRIOL], the Binding affinity in assay [1] turned out to be 100. This compound also had an Activity in the assay with HL-60 of 100.

`C=C1/C(=C\C=C2/CCC[C@]3(C)[C@@H]([C@H](C)CC[C@@H](O)C(C)(C)[N+](=O)[O-])CC[C@@H]23)C[C@@H](O)C[C@@H]1O`: the Binding affinity in assay [1] came out at 93. For the same compound, in the assay on HL-60, the Activity amounted to 182.

Turning to `C=C1/C(=C\C=C2/CCC[C@]3(C)[C@@H]([C@H](C)CC[C@@H](O)C(C)C)CC[C@@H]23)C[C@@H](O)C[C@@H]1O` [TACALCITOL], the Binding affinity in assay [1] worked out at 131. This compound also came in with an Activity with HL-60 of 182.

In assay [1], `C=C1/C(=C\C=C2/CCC[C@]3(C)[C@@H]([C@H](C)CC[C@H](O)C(C)C)CC[C@@H]23)C[C@@H](O)C[C@@H]1O` came in with a Binding affinity of 10. Also, in the assay on HL-60, the Activity was 18.

In assay [1], `C=C1/C(=C\C=C2/CCC[C@]3(C)[C@@H]([C@H](C)CC[C@H](O)C(C)(C)[N+](=O)[O-])CC[C@@H]23)C[C@@H](O)C[C@@H]1O` displayed a Binding affinity of 10. The Activity in the assay on HL-60 came out at 12.
